Where two headings read alike, the source gives them in different places.
What was measured:
[1] = system: PANK2 silenced human neuroblastoma IMR32 cells (PANK2−/−); experiment: Coenzyme A assay in PANK2 silenced cells (LC-MS quantification of free CoA); assay type: cell-based; conditions: compound added twice (24 h + 24 h), relative to 0.1% DMSO controls
How it was run: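 Free intracellular CoA was measured by positive-mode LC-MS/MS of 20% TFA extracts, taking 2 μl per 10^6 cells as intracellular volume. Cells were IMR32 with stable lentiviral PANK2 knockdown, dosed twice 24 h apart (48 h total, 0.1% DMSO). Output is fold increase over vehicle.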

[2] = Stability in human plasma; assay type: in vitro ADME; conditions: 37° C.
Procedure: Compounds and positive control samples were dissolved in 100% DMSO at 3 mM. To investigate the stability of the test compounds in plasma, samples were made by diluting test compounds into plasma from the stock solutions to obtain a test compound concentration of 3 μM (0.1% DMSO). Before addition of a test compound, 990 μl of plasma were preincubated at 37° C. for 5 min in eppendorf. After addition of a test compound, 70 μl for each time point were transferred to a 96-deepwell plate, previously warmed at 37° C. in a DUBNOFF water bath. Each compound was tested at five time points, in duplicate (10, 20, 30, 40 and 60 min). At each time point, an aliquot of 50 μl was taken and transferred to a new 96-deepwell plate, and the reaction was stopped with 200 μl of 100% acetonitrile containing 0.1% formic acid and the appropriate internal standard. Then samples were centrifuged at 1100×g for 30 min at +4° C. and supernatants were transferred to a new 96-deepwell plate. Samples were evaporated under N2 and reconstituted in H2O/ACN 0.1% Formic Acid (98:2). Analysis was performed without a calibration curve (Acquity UPLC-Waters; SciexAPI4000). Time 0 was obtained by adding acetonitrile before addition of the test compound.

[3] = human, plasma, Diastereoisomer A (upfield shift in 31P NMR), read-out: t1/2, Human Plasma, Diastereoisomer A (converted)
[4] = human, plasma, Diastereoisomer B, read-out: t1/2, Human Plasma, Diastereoisomer B (converted)

Row | half-life at 3 µM [2, 3] | SMILES | PANK2−/− CoA (Fold Increase): fold increase in Coenzyme A (CoA) levels relative to controls [1] | further results
1 | 57 min | COC(=O)CCNC(=O)[C@@H]1OP(=O)(N[C@@H](C)C(=O)OCCCc2ccccc2)OCC1(C)C (stereo in doubt) [compound 46, methyl 3-((2R,4R)-5,5-dimethyl-2-oxido-2-(((S)-1-oxo-1-(3-phenylpropoxy)propan-2-yl)amino)-1,3,2-dioxaphosphinane-4-carboxamido)propanoate] | 2.74 Fold Increase | –
2 | > 60 min | COC(=O)CCNC(=O)[C@@H]1OP(=O)(N[C@@H](C)C(=O)OCCc2ccccc2)OCC1(C)C (stereo in doubt) [compound 48, methyl 3-((2R,4R)-5,5-dimethyl-2-oxido-2-(((S)-1-oxo-1-phenethoxypropan-2-yl)amino)-1,3,2-dioxaphosphinane-4-carboxamido)propanoate] | 2.16 Fold Increase | –
3 | < 9.6 min | C[C@H](NP1(=O)OCC(C)(C)[C@H](C(=O)NCCC(=O)OC2Cc3ccccc3C2)O1)C(=O)OCCc1ccccc1 (stereo partly drawn) [1-54, 2,3-dihydro-1H-inden-2-yl 3-((4R)-5,5-dimethyl-2-oxido-2-(((S)-1-oxo-1-phenethoxypropan-2-yl)amino)-1,3,2-dioxaphosphinane-4-carboxamido)propanoate] | 1.13 Fold Increase | half-life at 3 µM [2, 4]: < 9.6 min
4 | > 60 min | C[C@H](NP1(=O)OCC(C)(C)[C@H](C(=O)NCCC(=O)O[C@@H]2CCOC2)O1)C(=O)OCCc1ccccc1 (stereo partly drawn) [1-55, phenethyl ((4R)-5,5-dimethyl-2-oxido-4-((3-oxo-3-(((R)-tetrahydrofuran-3-yl)oxy)propyl)carbamoyl)-1,3,2-dioxaphosphinan-2-yl)-L-alaninate] | 2.09 Fold Increase | half-life at 3 µM [2, 4]: > 60 min
5 | 39.6 min | CN1CCCC(OC(=O)CCNC(=O)[C@@H]2OP(=O)(OCOC(=O)C(C)(C)C)OCC2(C)C)C1 (stereo partly drawn) [Compound No. 99, (((4R)-5,5-dimethyl-4-((3-((1-methylpiperidin-3-yl)oxy)-3-oxopropyl)carbamoyl)-2-oxido-1,3,2-dioxaphosphinan-2-yl)oxy)methyl pivalate] | 10.44 Fold Increase | –
6 | < 9.6 min | COC(=O)CCNC(=O)[C@@H]1OP(=O)(OCOC(=O)C(C)C)OCC1(C)C (stereo partly drawn) [Compound No. 103, (((4R)-4-((3-methoxy-3-oxopropyl)carbamoyl)-5,5-dimethyl-2-oxido-1,3,2-dioxaphosphinan-2-yl)oxy)methyl isobutyrate] | 105.8 Fold Increase | half-life at 3 µM [2, 4]: < 9.6 min
7 | – | COC(=O)CCNC(=O)[C@@H]1OP(=O)(N[C@@H](Cc2ccccc2)C(=O)OC)OCC1(C)C (stereo partly drawn) [compound 9, methyl ((4R)-4-((3-methoxy-3-oxopropyl)carbamoyl)-5,5-dimethyl-2-oxido-1,3,2-dioxaphosphinan-2-yl)-L-phenylalaninate] | 1.83 Fold Increase | –
8 | – | COC(=O)CCNC(=O)[C@@H]1OP(=O)(N[C@H](C(=O)OC)C2CCCCC2)OCC1(C)C (stereo partly drawn) [compound 12, methyl 3-((4R)-2-(((S)-1-cyclohexyl-2-methoxy-2-oxoethyl)amino)-5,5-dimethyl-2-oxido-1,3,2-dioxaphosphinane-4-carboxamido)propanoate] | 1.28 Fold Increase | –
9 | – | COC(=O)CCNC(=O)[C@@H]1OP(=O)(N[C@@H](C)C(=O)OC2CCOC2)OCC1(C)C (stereo partly drawn) [compound 34, methyl 3-((4R)-5,5-dimethyl-2-oxido-2-(((2S)-1-oxo-1-((tetrahydrofuran-3-yl)oxy)propan-2-yl)amino)-1,3,2-dioxaphosphinane-4-carboxamido)propanoate] | 1.3 Fold Increase | half-life at 3 µM ([2]; Diastereoisomer A (upfield shift in 31P NMR), read-out: t1/2, Human Plasma, Diastereoisomer A (converted)): > 60 min; t1/2, Human Plasma, Diastereoisomer B ([2]; Diastereoisomer B, 3 μM): >60 min
10 | > 60 min | COC(=O)CCNC(=O)[C@@H]1O[P@@](=O)(N[C@@H](C)C(=O)OCCc2ccccn2)OCC1(C)C [compound 35, methyl 3-((2R,4R)-5,5-dimethyl-2-oxido-2-(((S)-1-oxo-1-(2-(pyridin-2-yl)ethoxy)propan-2-yl)amino)-1,3,2-dioxaphosphinane-4-carboxamido)propanoate] | 2.23 Fold Increase | half-life at 3 µM [2, 4]: 53.4 min
11 | > 60 min | COC(=O)CCNC(=O)[C@@H]1OP(=O)(N[C@@H](Cc2cccnc2)C(=O)OCCc2ccccc2)OCC1(C)C (stereo partly drawn) [compound 36, phenethyl (2S)-2-(((4R)-4-((3-methoxy-3-oxopropyl)carbamoyl)-5,5-dimethyl-2-oxido-1,3,2-dioxaphosphinan-2-yl)amino)-3-(pyridin-3-yl)propanoate] | 2.44 Fold Increase | half-life at 3 µM [2, 4]: > 60 min
12 | – | COC(=O)CCNC(=O)[C@@H]1O[P@](=O)(OC(C)OC(=O)C(C)(C)C)OCC1(C)C (stereo partly drawn) [compound 102, 1-(((2R,4R)-4-((3-methoxy-3-oxopropyl)carbamoyl)-5,5-dimethyl-2-oxido-1,3,2-dioxaphosphinan-2-yl)oxy)ethyl pivalate] | 2.5 Fold Increase | –
13 | – | CC(C)OC(=O)OCO[P@@]1(=O)OCC(C)(C)[C@H](C(=O)NCCC(=O)OC(C)(C)C)O1 [compound 105, tert-butyl 3-((2S,4R)-2-(((isopropoxycarbonyl)oxy)methoxy)-5,5-dimethyl-2-oxido-1,3,2-dioxaphosphinane-4-carboxamido)propanoate] | 4.72 Fold Increase | –
14 | – | COC(=O)CCNC(=O)[C@@H]1O[P@@](=O)(OC(C)OC(=O)C(C)C)OCC1(C)C (stereo partly drawn) [compound 106, 1-(((2S,4R)-4-((3-methoxy-3-oxopropyl)carbamoyl)-5,5-dimethyl-2-oxido-1,3,2-dioxaphosphinan-2-yl)oxy)ethyl isobutyrate] | 2.66 Fold Increase | –
15 | – | COC(=O)CCNC(=O)[C@@H]1OP(=O)(NCCc2ccccc2)OCC1(C)C (stereo partly drawn) [compound 112, methyl 3-((4R)-5,5-dimethyl-2-oxido-2-(phenethylamino)-1,3,2-dioxaphosphinane-4-carboxamido)propanoate] | 1.42 Fold Increase | –
16 | – | COC(=O)CCNC(=O)[C@@H]1O[P@](=O)(NCC2CCCO2)OCC1(C)C (stereo partly drawn) [compound 119, methyl 3-((2S,4R)-5,5-dimethyl-2-oxido-2-(((tetrahydrofuran-2-yl)methyl)amino)-1,3,2-dioxaphosphinane-4-carboxamido)propanoate] | 1.44 Fold Increase | –
17 | – | COC(=O)CCNC(=O)[C@@H]1O[P@](=O)(N2CCOCC2)OCC1(C)C [compound 135, methyl 3-((2S,4R)-5,5-dimethyl-2-morpholino-2-oxido-1,3,2-dioxaphosphinane-4-carboxamido)propanoate] | 1.3 Fold Increase | –
18 | – | COC(=O)CCNC(=O)[C@@H]1O[P@@](=O)(N2CCOCC2)OCC1(C)C [compound 136, methyl 3-((2R,4R)-5,5-dimethyl-2-morpholino-2-oxido-1,3,2-dioxaphosphinane-4-carboxamido)propanoate] | 1.93 Fold Increase | –
19 | – | COC(=O)CCNC(=O)[C@@H]1O[P@@](=O)(N2CCS(=O)(=O)CC2)OCC1(C)C [compound 137, methyl 3-((2R,4R)-2-(1,1-dioxidothiomorpholino)-5,5-dimethyl-2-oxido-1,3,2-dioxaphosphinane-4-carboxamido) propanoate] | 1.76 Fold Increase | –
20 | – | COC(=O)CCNC(=O)[C@@H]1O[P@](=O)(N2CCS(=O)(=O)CC2)OCC1(C)C [compound 138, methyl 3-((2S,4R)-2-(1,1-dioxidothiomorpholino)-5,5-dimethyl-2-oxido-1,3,2-dioxaphosphinane-4-carboxamido) propanoate] | 1.7 Fold Increase | –
21 | – | COC(=O)CCNC(=O)[C@@H]1OP(=O)(N2CCN(C(C)=O)CC2)OCC1(C)C (stereo partly drawn) [compound 139, methyl 3-((4R)-2-(4-acetylpiperazin-1-yl)-5,5-dimethyl-2-oxido-1,3,2-dioxaphosphinane-4-carboxamido)propanoate] | 2.72 Fold Increase | –

Reference: patent publication US10364263B2, “Cyclic phosphates and cyclic phosphoramidates for the treatment of neurologic disorders” (Retrophin, Inc., priority 2015, dated 2019)
